Source: patent US7276337B2, “Compositions and methods for visual ribonuclease detection assays” (Integrated DNA Technologies, Inc., priority 2000, dated 2007)

Legend:
Ribonuclease A = molecular target: T1, Ribonuclease A (Bos taurus, UniProt P61823); assay: Visual detection ribonuclease assay, cleavage of Substrate ODN by RNase A; format: biochemical, mammalian; parameters: key to Sensitivity of Substrate ODN to Ribonuclease A, relative signal intensity: +++ = maximum intensity; ++ = moderate intensity; + = faint but above background; − = negative (identical to background); conditions: Substrate 500 nM; for Sensitivity of Substrate ODN to Ribonuclease A, relative signal intensity: visual inspection, UV excitation, 37° C. 60 minutes
T1 sequence (P61823 27-150): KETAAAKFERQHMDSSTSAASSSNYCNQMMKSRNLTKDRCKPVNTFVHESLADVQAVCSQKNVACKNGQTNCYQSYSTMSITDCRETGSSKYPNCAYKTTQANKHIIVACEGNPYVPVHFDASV
Protocol: Nuclease assays were conducted using the methods of the invention. SEQ ID NO:2 and SEQ ID NO:30 oligonucleotides were individually mixed in 1× Assay Buffer at a concentration of 500 nM (50 pmoles ODN in 100 ul volume) in thin-walled, UV transparent microtubes. RNase A (1 ul, diluted to 0;1 ug/ul) was added to the respective Assay Mixes. […] Assays were set up directly in microtubes as follows:
Assay Mixes were incubated at room temperature for 10 minutes. Assays were visually examined for fluorescence emission directly in the assay tubes without further manipulation. Tubes were suspended above an ultraviolet light source, visually inspected, and photographed using a digital camera. […] The “positive” and “control” reactions appeared markedly different and were easily distinguished. […] The “positive” and “control” reactions were not markedly different to visual inspection.
(§1) Nuclease assays were conducted using the method of the invention with both visual and fluorometric detection methods. Substrates were individually mixed in 1× Assay Buffer at a concentration of 50 nM (50 pmoles oligonucleotide in 1 ml volume) for fluorometric detection or at a concentration of 500 nM (50 pmoles of oligonucleotide in 100 ul volume) for visual detection. Test nucleases were added to respective Assay Mixes beginning at 1 ul stock reagent and proceeding with a 1:10 serial dilution until undetectable. Reaction mixes were incubated at 37° C. for 60 minutes. Fluorometric detection was performed as outlined in Example 2. Visual detection was performed as outlined in Example 1.
Table 6: Sensitivity of different Substrate ODNs to Ribonuclease A. A series of Substrate ODNs were synthesized and tested for sensitivity to RNase A degradation. Stock enzyme was serial diluted to achieve final concentrations of 1 ng/ml, 100 pg/ml, and 10 pg/ml as indicated. Reactions were examined for fluorescence emission by visual inspection using an ultraviolet (UV) light source for excitation. Results were scored as +++, ++, +, or − based on relative signal intensity.
(§2) It is commonly accepted that fluorometry provides for high sensitivity. To be useful, the visual method must also offer high sensitivity. Assays were conducted using the method of the invention with visual detection. Substrate SEQ ID NO:30 was mixed in 1× Assay Buffer at a concentration of 500 nM (50 pmoles ODN in 100 ul volume) in thin-walled, UV transparent tubes. […] Dilutions of stock RNase A, RNase 1, and RNase T1 were made in water. Undiluted and diluted nuclease (1 ul) was added to respective 100 ul Assay Mixes resulting in final dilution factors of 10^−2, 10^−3, 10^−4, 10^−5, 10^−6, and 10^−7. Assays were incubated at room temperature for 10 minutes and visually examined for fluorescence emission with UV excitation. […] The experiment took about 30 minutes to perform, including 15 minutes to set-up serial dilutions, 10 minutes incubation, and 5 minutes to visualize and photograph. Thus the method of the invention allows for a rapid, simple, and convenient visual assay for the presence of ribonuclease activity.

Ribonuclease T1 = molecular target: T2, Ribonuclease T1 (Aspergillus oryzae, UniProt P00651); assay: Visual detection ribonuclease assay, cleavage of Substrate ODN by RNase T1; format: biochemical; parameters: key to Sensitivity of Substrate ODN to Ribonuclease T1, relative signal intensity: +++ = maximum intensity; ++ = moderate intensity; + = faint but above background; − = negative (identical to background); conditions: visual inspection, UV excitation, Substrate 500 nM, 37° C. 60 minutes
T2 sequence (P00651 27-130): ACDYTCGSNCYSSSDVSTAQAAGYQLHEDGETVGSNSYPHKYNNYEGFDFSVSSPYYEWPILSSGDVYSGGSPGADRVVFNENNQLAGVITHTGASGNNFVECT
Protocol: as §1
Table 7: Sensitivity of different Substrate ODNs to Ribonuclease T1. A series of Substrate ODNs were synthesized and tested for sensitivity to RNase T1 degradation. Stock enzyme was serial diluted to achieve final concentrations of 0.001 units/ml, 0.0001 units/ml, and 0.00001 units/ml as indicated. Reactions were examined for fluorescence emission by visual inspection using an ultraviolet (UV) light source for excitation. Results were scored as +++, ++, +, or − based on relative signal intensity.
as §2

RNase A = molecular target: T3, RNase A (Bos taurus, UniProt P61823); assay: Fluorometric detection nuclease assay, RNase A; format: biochemical, mammalian; conditions: RNase A 0.33 ug/ml; Substrate 50 nM; 37° C. 1 hour; 490 nm excitation
T3 sequence (P61823 27-150): T1 sequence (P61823 27-150)
Protocol: (§3) Nuclease assays were conducted using the method of the invention. SEQ ID NO:2 and SEQ ID NO:3 oligonucleotides were individually mixed in 1× Assay Buffer at a concentration of 50 nM (150 pmoles oligonucleotide in 3 mls volume). […] Assays were set up directly in cuvettes as follows:
(§4) Assay Mixes were incubated at 37° C. for 1 hour. Fluorescence emission spectra were measured using a PTI fluorometer with 490 nm excitation. Substrate SEQ ID NO:2 (having chimeric RNA-DNA composition) reacted with both DNase I (undesired) and RNase A (desired).
Nuclease assays were conducted using the method of the invention. The Substrate (SEQ ID NO:30) was mixed in 1× Assay Buffer at a concentration of 50 nM (150 pmoles oligonucleotide in 3 mls volume). Test nucleases were added to respective Assay Mixes, including 1 ul of RNase A (1 ug), 1 ul of RNase 1 (100 units), or 1 ul of RNase T1 (1000 units). […] Assays were set up directly in cuvettes as follows:
Assay Mixes were incubated at 37° C. for 1 hour. Assays were transferred to cuvettes and fluorescence emission at 520 nm was measured using a PTI fluorometer with 490 nm excitation. Substrate SEQ ID NO:30, a preferred Substrate of the invention, reacted with (i.e., detected) all three RNase enzymes, verifying that Substrate compositions of the invention are sensitive to a variety of RNase enzymes.
Substrate SEQ ID NO:30 was mixed in 1× Assay Buffer at a concentration of 50 nM (150 pmoles oligonucleotide in 3 mls volume). RNase A was added at final concentrations of 10 ng/ml, 2 ng/ml, 1 ng/ml, and 0.4 ng/ml. […] Assay mixes were incubated at 37° C. in a cuvette directly in a PTI fluorometer. Fluorescence emission at 520 nm with 490 nm excitation was measured over time. At high nuclease concentrations, the reaction goes rapidly to completion. At lower nuclease concentrations, the reaction rate decreases but with longer incubation times an easily detectable signal is generated. Substrate concentration is fixed and input enzyme (i.e., the test sample) varies. Since the background is stable (monitored in the control reaction), use of extended incubation periods will increase the sensitivity of the assay.
Assays were conducted using the method of the invention with fluorometric detection. Substrate SEQ ID NO:30 was mixed in 1× Assay Buffer at a concentration of 50 nM (50 pmoles ODN in 1.0 ml volume) in RNase-free disposable cuvettes. […] Dilutions of stock RNase A, RNase 1, and RNase T1 were made in water. Undiluted and diluted nuclease (1 ul) was added to respective 1.0 ml Assay Mixes resulting in final dilution factors of 10^−3, 10^−4, 10^−5, 10^−6, 10^−7, 10^−8, and 10^−9. Assays were incubated at 37° C. for 1 hour and examined for fluorescence emission at 520 nm using 490 nm excitation in a PTI fluorometer. Final enzyme concentration reported notes the lowest concentration tested that was reproducibly positive with a signal:noise ratio of at least 2:1.

DNase I = DNase I (Bos taurus, UniProt P00639); assay: Fluorometric detection nuclease assay, DNase I (nuclease specificity); format: biochemical; conditions: DNase I 2 units/ml; Substrate 50 nM; 37° C. 1 hour; 490 nm excitation
Protocol: as §3, §4

DNase I, sequence (P00639 23-282): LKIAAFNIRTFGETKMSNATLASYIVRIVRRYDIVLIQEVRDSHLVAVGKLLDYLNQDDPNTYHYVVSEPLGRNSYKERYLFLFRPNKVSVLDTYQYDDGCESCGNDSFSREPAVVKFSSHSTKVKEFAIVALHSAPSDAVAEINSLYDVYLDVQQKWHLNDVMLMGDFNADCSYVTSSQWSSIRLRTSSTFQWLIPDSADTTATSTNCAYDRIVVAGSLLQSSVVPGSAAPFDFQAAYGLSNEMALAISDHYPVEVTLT

Substance | Sensitivity of Substrate ODN to Ribonuclease A, relative signal intensity (Ribonuclease A; RNase A 10 pg/ml) | Sensitivity of Substrate ODN to Ribonuclease A, relative signal intensity (Ribonuclease A; RNase A 100 pg/ml) | Sensitivity of Substrate ODN to Ribonuclease A, relative signal intensity (Ribonuclease A; RNase A 1 ng/ml) | Sensitivity of Substrate ODN to Ribonuclease T1, relative signal intensity (Ribonuclease T1; RNase T1 10^−3 units/ml) | Sensitivity of Substrate ODN to Ribonuclease T1, relative signal intensity (Ribonuclease T1; RNase T1 10^−4 units/ml) | Sensitivity of Substrate ODN to Ribonuclease T1, relative signal intensity (Ribonuclease T1; RNase T1 10^−5 units/ml) | Reactivity with RNase A (fluorometer) (RNase A) | Reactivity with DNase I (fluorescence emission spectra) (DNase I) | Fluorescence emission by visual inspection in the presence of RNase (Ribonuclease A; RNase A 1.0 ug/ml, room temperature 10 minutes, UV light source) | Fluorescence emission by visual inspection in the absence of RNase (control reaction) (Ribonuclease A; no nuclease, room temperature 10 minutes, UV light source)
5′ Fluorescein-AAuAA-Dabcyl 3′ (NAAUAAN; 5' fluorescein and 3' Dabcyl labels, nucleotide chemistry not given here) [SEQ ID NO:3] | − | + | ++ | − | − | − | retained reactivity | did not react |  | 
5′ Fluorescein-AuAA-Tamra 3′ (NAUAAN; 5' fluorescein and 3' TAMRA labels, nucleotide chemistry not given here) [SEQ ID NO:2, reference compound] |  |  |  |  |  |  | reacted | reacted | changed somewhat in color and slightly increased in intensity | emitted light
